Data on seven compounds can be found in patent US6441026B1, “Antitumor compositions containing taxane derivatives” (priority 1995, dated 2002).

For one data set, the system named is C38 colon adenocarcinoma. As to conditions: optimum dose, i.v., days 21,25,29,33: Taxotere 22 mg/kg/inj; 5-fluorouracil 43.4; combination Taxotere 17.6 + 5-fluorouracil 27.0 (simultaneous). An excerpt:
(§1) log10 cells killed=T−C(days)/3.32×Td
(§2) The animals are autopsied when sacrificed.

The test system of another data set is Colon 51. The settings on record: for Responses TFS (tumor free survivors): on day 122. The protocol: as §1, §2
(§3) The tumor model used to evaluate each drug combination was selected, in general, on the basis of its responsiveness to each of the agents when used as monotherapy. Using i.v. intermittent schedules, full dose response trials were conducted for each single agent and each combination.
(§4) In addition to the parameters described above, the combination toxicity index (CTI) was determined. […] Rep. 66: 1187-1200 (1982). […] It indicates the extent in host toxicity overlap.

The subject of data set [1] is MA13/c mammary adenocarcinoma. The settings on record: optimum dose, i.v.: Taxotere 15 mg/kg/inj days 14,17,20; cyclophosphamide 118 mg/kg day 14; combination Taxotere 7.5 + cyclophosphamide 90.0 mg/kg/inj.
Method: This efficacy may be quantified, for example, by the log10 cells killed, which is determined according to the following formula:
A product is considered to be active if log10 cells killed is greater than or equal to 0.7. A product is considered to be very active if log10 cells killed is greater than 2.8.
The combination, used at its own maximum tolerated dose, in which each of the constituents will be present at a dose generally not exceeding its maximum tolerated dose, will manifest therapeutic synergy when the log10 cells killed is greater than the value of the log10 cells killed of the best constituent when it is administered alone.
The efficacy of the combinations on solid tumors may be determined experimentally in the following manner:
The animals subjected to the experiment, generally mice, are subcutaneously grafted bilaterally with 30 to 60 mg of a tumor fragment on day 0. The animals bearing tumors are mixed before being subjected to the various treatments and controls. […]
The tumors are measured 2 or 3 times a week until the tumor reaches approximately 2 g, or until the animal dies if this occurs before the tumor reaches 2 g. […]
The antitumor activity is determined in accordance with the different parameters recorded.
The next data set concerns MA13/C. The settings on record: mouse, in vivo. The protocol: as §1, §2, §3, §4
The subject of the next data set is MA 17/C. As to conditions: mouse, in vivo, iv, 40.3 mg/kg. The protocol:
as §1, §2, §3, §4

[2] abbreviates: CPT-11 trial: CPT-11 PO 42.5 mg/kg/inj 5,9 2x/d, acetocyclopropyl taxotere IV 21.1 days 5,9, combination 21.0 + 11.9 simult.
Where [3] appears, read: cisplatin trial, days 5,12: acetocyclopropyl taxotere 30.0 mg/kg/inj IV, cisplatinum 3.1, combination 13.6 + 2.0 simult.

Molecules are shown by their SMILES. Where two headings read alike, the source gives them in different places.

For `O=c1[nH]cc(F)c(=O)[nH]1` [5-fluorouracil], the log10 cells killed with C38 colon adenocarcinoma came to 1.1.

As to `CCc1c2c(nc3ccc(OC(=O)N4CCC(N5CCCCC5)CC4)cc13)-c1cc3c(c(=O)n1C2)COC(=O)[C@]3(O)CC` [CPT-11], in the data set with Colon 51 (setting [2]), the “% bwl loss at nadir” value worked out at 3.7%, the T/C % was found to be 0% and the “day of nadir (body weight loss)” value is “(7) day”. The log cell kill with Colon 51 (CPT-11 trial: CPT-11 PO 42.5 mg/kg/inj 5,9 2x/d, acetocyclopropyl taxotere IV 21.1 days 5,9, combination 21.0 + 11.9 simult., Td = 2 days) is recorded as 1.1.

With `N.N.[Cl][Pt][Cl]` [Cisplatinum, cisplatin], in the data set on Colon 51 (setting [3]), the T/C % is listed as 0% and the “Responses TFS (tumor free survivors)” value was 0/7. Also, the log cell kill with Colon 51 (cisplatin trial, days 5,12: acetocyclopropyl taxotere 30.0 mg/kg/inj IV, cisplatinum 3.1, combination 13.6 + 2.0 simult., Td = 2.5 days) was determined as 2.7. Also, the “Responses TFS (tumor free survivors)” value with Colon 51 (cisplatin trial, days 5,12: acetocyclopropyl taxotere 30.0 mg/kg/inj IV, cisplatinum 3.1, combination 13.6 + 2.0 simult., listed as cisplatin) is “no tumor free survivors”.

As for `O=P1(N(CCCl)CCCl)NCCCO1` (centres unmarked) [Cylcophosphamide, cyclophosphamide], the log10 cells killed in data set [1] was determined as 1.3.

As to `COc1cccc2c1C(=O)c1c(O)c3c(c(O)c1C2=O)C[C@@](O)(C(=O)CO)C[C@@H]3O[C@H]1C[C@H](N)[C@H](O)[C@H](C)O1` [Doxorubicin, doxorubicin], in the data set on MA13/C, the “Responses CR (Complete Response)” value is listed as 3/5 and the log cell kill is reported as 3.0.

With `CCC1=C[C@@H]2CN(C1)Cc1c([nH]c3ccccc13)[C@@](C(=O)OC)(c1cc3c(cc1OC)N(C)[C@H]1[C@@](O)(C(=O)OC)[C@H](OC(C)=O)[C@]4(CC)C=CCN5CC[C@]31[C@@H]54)C2` [Navelbine], in the data set on MA 17/C, the “Responses TFS (tumor free survivors)” value is 0/6, the T/C % is 0% and the log cell kill worked out at 5.5.

As for `CC(=O)O[C@@]12CO[C@@H]1C[C@H](O)[C@@]1(C)C(=O)[C@H](O)C3=C(C)[C@@H](OC(=O)[C@H](O)[C@@H](NC(=O)OC(C)(C)C)c4ccccc4)C[C@@](O)([C@@H](OC(=O)c4ccccc4)[C@H]21)C3(C)C` [Taxotere], the results for the log10 cells killed (in data set [1]; in the data set with C38 colon adenocarcinoma) were 2.8 and 1.4, respectively.
